Measurements taken from patent publication US5877193A, “Use of N-(4-aryl-thiazol-2-yl)-sulfonamides” (Hoffmann-La Roche Inc., priority 1996, dated 1999).
Converted amounts (≈) assume the structure as drawn. Like-named read-outs stand apart in the source and are kept apart here.

Tests used:
kynurenin-3-hydroxylase [1] = target: T1, kynurenin-3-hydroxylase (Rattus norvegicus, UniProt O88867); assay: in vitro kynurenin-3-hydroxylase inhibition (crude rat kidney mitochondrial preparation); type: biochemical; settings: for remaining activity at 1 µM: read-out: % of control at 1 μM; for IC50: pH 7.4
T1 construct: The enzyme source is a crude rat kidney mitochondrial preparation; from tissue; host or cells: rat kidney, crude mitochondrial preparation
Excerpt: (§1) Determination of kynurenin-3-hydroxylase in vitro and ex vivo
(§2) The kynurenin-3-hydroxylase inhibiting activity of the compounds in accordance with the invention can be determined in vitro and ex vivo using standard methods. The preparations to be tested were examined in the tests described hereinafter, which are based on the methods published by J. B. Erickson, E. M. Flanagan, S. Russo and J. F. Reinhard [Anal. Biochem. 1992, 205: 257-262].
The enzyme source is a crude rat kidney mitochondrial preparation which, taken up in the ratio 1:70 (weight/volume) in a potassium phosphate buffer of pH 7.4, containing EGTA, is kept in the frozen state at -80° C. until used. The enzyme test for the in vitro determination differs from the ex vivo determination described hereinafter by the use of the mentioned mitochondreal preparation in place of tissue homogenates as the enzyme source and by a pre-incubation of the enzyme with the substances to be tested at 37° C. for 15 min.
(§3) Measurement of the enzyme activity
(§4) Scheme of a typical procedure carried out in an incubation tube of appropriate size or on a microtitre plate:
(§5) 25 μl of the substance to be tested in a suitable concentration (in vitro) or homogenization buffer (ex vivo)
(§6) 25 μl of potassium phosphate buffer 0.2M containing 0.4 units of glucose-6-phosphate dehydrogenase
(§7) 25 μl of the mitochondrial preparation (in vitro) or of the kidney or liver homogenate (ex vivo)
pre-incubation: 15 min at 37° C. (only in vitro)
(§8) 25 μl of the substrate L-kynurenin containing L-^3 H-3-kynurenin (0.1 μCi)
(§9) 100 μmol, magnesium chloride 4 mmol, NADPH 200 μmol, glucose-6-phosphate 3 mmol (concentration data as final concentrations)
(§10) incubation: 10 min (in vitro) or 2 min (ex vivo) at 37° C. on a shaking machine
(§11) 150 μl of a 10% suspension of active charcoal (Norit A) in water (to remove unreacted labelled substrate)
(§12) shaking for about one minute
(§13) centrifugation for 4 min at 4000 revolutions/min
(§14) transfer of 50 μl of the charcoal-free supernatant into a counting vessel
(§15) addition of 150 μl of an appropriate scintillator to count the radioactivity of the now-tritiated water, which is a measurement of the enzyme activity which exists.
The IC50 value is a measurement of the strength of the in vitro enzyme inhibition which is brought about by the tested substances. It is the concentration of test substance which brings about a 50% inhibition of the enzyme activity.

kynurenin-3-hydroxylase [2] = target: T1, kynurenin-3-hydroxylase; assay: ex vivo kynurenin-3-hydroxylase inhibition in the liver after oral administration to rats; settings: 2 hours; for ED50: po
Description: as §1, §2
The substances to be tested are administered orally to male rats of 100-140 g body weight in a dosage of 30 μmol/kg. The kidneys and a part of the liver are removed from the animals, which are decapitated after 2 hours, and frozen at -80° C. until used. In order to measure the enzyme activity, the organs are homogenized in the ratio 1:10 (weight/volume) in sucrose, containing TRIS/HCl, pH 7.4 and PMSF.
as §3, §4, §5, §6, §7, §8, §9, §10, §11, §12, §13, §14, §15
The ED50 value or, where this is not achieved, the percentage inhibition after administration of a single dosage, is a measurement of the strength of the ex vivo enzyme inhibition which is brought about by the tested substances. The ED50 value is that dosage of test substance which leads to a 50% enzyme inhibition in the investigated tissue homogenates.

Listeria monocytogenes = assay: antibacterial activity, MIC by microdilution; type: cell-based; settings: 18 h
Description: (§16) Method for the determination of antibacterial activity
(§17) The minimum inhibitory concentration (MIC in μg/ml) was determined by the microdilution method in which an Isosensotest bouillon (Oxoid) was used and was complemented with 3% horse blood for Streptococcus and Listeria. The inoculation amount was approximately 5×10^5 CFU/ml. After incubation at 37° C. for 18 h the plates were evaluated at 650 nm. The MIC was determined as the lowest concentration of active substance which brought about a growth inhibition of ≥80% compared to the control.

Pseudomonas aeruginosa = assay: antibacterial activity, MIC by microdilution; type: cell-based; settings: 18 h
Description: as §16, §17

Enterococcus faecalis = assay: antibacterial activity, MIC by microdilution; type: cell-based
Description: as §16, §17

Escherichia coli = assay: antibacterial activity, MIC by microdilution; type: cell-based; settings: ATCC25922, strain ATCC 25922, BCB 1001/04, 37° C., 18 h
Description: as §16, §17

Streptococcus pneumoniae = assay: antibacterial activity, MIC by microdilution; type: cell-based
Description: as §16, §17

Staphylococcus aureus = assay: antibacterial activity, MIC by microdilution; type: cell-based
Description: as §16, §17

Streptococcus pyogenes = assay: antibacterial activity, MIC by microdilution; type: cell-based; settings: 18 h
Description: as §16, §17

[3] = strain BK23, BCB 1003/55, 3% horse blood, 37° C., read-out: MIC
[4] = strain BA, BCB 1004/01, 37° C., read-out: MIC
[5] = ATCC29212, strain ATCC 29212, BCB 1003/28, 37° C., 18 h, read-out: MIC
[6] = ATCC49619, strain ATCC 49619, 3% horse blood, 37° C., 18 h, read-out: MIC
[7] = ATCC25923, strain ATCC 25923, BCB 1003/04, 37° C., 18 h, read-out: MIC
[8] = strain B15, BCB 1003/35, 3% horse blood, 37° C., read-out: MIC

T1 sequence (O88867 whole entry): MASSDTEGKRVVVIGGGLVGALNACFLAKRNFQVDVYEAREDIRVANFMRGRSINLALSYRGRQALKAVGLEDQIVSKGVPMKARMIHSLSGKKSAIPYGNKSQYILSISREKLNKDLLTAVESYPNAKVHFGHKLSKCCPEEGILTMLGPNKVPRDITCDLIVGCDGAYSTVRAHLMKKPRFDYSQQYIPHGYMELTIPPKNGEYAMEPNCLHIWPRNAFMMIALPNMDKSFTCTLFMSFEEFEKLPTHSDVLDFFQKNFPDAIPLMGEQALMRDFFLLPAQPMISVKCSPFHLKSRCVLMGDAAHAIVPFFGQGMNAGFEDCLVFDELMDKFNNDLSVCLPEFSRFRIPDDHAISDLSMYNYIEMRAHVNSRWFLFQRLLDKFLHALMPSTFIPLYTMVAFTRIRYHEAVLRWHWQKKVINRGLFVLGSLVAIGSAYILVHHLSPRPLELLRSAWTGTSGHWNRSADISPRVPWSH

Row | Compound | remaining activity at 1 µM (kynurenin-3-hydroxylase [1]) | IC50 (kynurenin-3-hydroxylase [1]) | % of control 30 μM/kg p.o in the liver (kynurenin-3-hydroxylase [2]) | ED50 (kynurenin-3-hydroxylase [2]) | MIC (Escherichia coli) | further results
1 | Cc1ccc(S(=O)(=O)Nc2nc(-c3cccc([N+](=O)[O-])c3)cs2)cc1 [Example 3, 4-Methyl-N-[4-(3-nitro-phenyl)-thiazol-2-yl]-benzene-sulfonamide] | – | 40 nM | 43.00% | – | – | –
2 | COc1ccc(-c2csc(NS(=O)(=O)c3ccc(C)cc3)n2)cc1OC [Example 6, N-[4-(3,4-Dimethoxy-phenyl)-thiazol-2-yl]-4-methyl-benzenesulfonamide] | 4.58% | 65 nM | 54.00% | – | – | –
3 | COc1ccc(S(=O)(=O)Nc2nc(-c3cccc([N+](=O)[O-])c3)cs2)cc1 [Example 8, 4-Methoxy-N-[4-(3-nitro-phenyl)-thiazol-2-yl]-benzenesulfonamide] | 5% | 44 nM | 23.00% | 9 µmol/kg | – | –
4 | Cc1ccc(S(=O)(=O)Nc2nc(-c3cc(C(F)(F)F)ccc3F)cs2)cc1 [Example 32, N-[4-(2-Fluoro-5-trifluoromethyl-phenyl)-thiazol-2-yl]-4-methyl-benzenesulfonamide] | 2.5% | 43 nM | – | 17 µmol/kg | – | –
5 | COc1ccc(S(=O)(=O)Nc2nc(-c3cc(C(F)(F)F)ccc3F)cs2)cc1 [Example 41, N-[4-(2-fluoro-5-trifluoromethyl-phenyl)-thiazol-2-yl]-4-methoxy-benzenesulfonamide] | 18% | 50 nM | – | 17 µmol/kg | – | –
6 | Cc1cc(NS(=O)(=O)c2ccc(N)cc2)no1 [SMZ, sulfamethoxazole, reference compound] | – | – | – | – | 128 µg/mL (≈ 505 µM) | MIC (Listeria monocytogenes): > 256 µg/mL; MIC (Pseudomonas aeruginosa): > 256 µg/mL; MIC (Enterococcus faecalis; ATCC29212, 18 h): > 256 µg/mL; MIC (Streptococcus pneumoniae; ATCC49619, 18 h): > 256 µg/mL; MIC (Staphylococcus aureus; ATCC25923, 18 h): 32 µg/mL (≈ 126 µM); MIC (Streptococcus pyogenes): 16 µg/mL (≈ 63.2 µM)
7 | COc1cc(Cc2cnc(N)nc2N)cc(OC)c1OC [TMP, trimethoprim, reference compound] | – | – | – | – | 1 µg/mL (≈ 3.44 µM) | MIC (Listeria monocytogenes; [3]): 0.25 µg/mL (≈ 0.861 µM); MIC (Pseudomonas aeruginosa; [4]): 8 µg/mL (≈ 27.6 µM); MIC (Enterococcus faecalis; ATCC29212, 18 h): 0.125 µg/mL (≈ 0.431 µM); MIC (Streptococcus pneumoniae; [6]): 4 µg/mL (≈ 13.8 µM); MIC (Staphylococcus aureus; [7]): 0.5 µg/mL (≈ 1.72 µM); MIC (Streptococcus pyogenes; [8]): 2 µg/mL (≈ 6.89 µM)

Now from value to compound, other results behind:

Row | remaining activity at 1 µM (kynurenin-3-hydroxylase [1]) | IC50 (kynurenin-3-hydroxylase [1]) | % of control 30 μM/kg p.o in the liver (kynurenin-3-hydroxylase [2]) | ED50 (kynurenin-3-hydroxylase [2]) | Compound | MIC (Escherichia coli) | further results
8 | 4% | 30 nM | 20.00% | – | O=[N+]([O-])c1cccc(-c2csc(NS(=O)(=O)c3ccc4ccccc4c3)n2)c1 [D, Naphthalene2-sulfonic acid [4(3-nitro-phenyl)-thiazol-2-yl)-amide] | – | –
9 | 2% | 26 nM | 10.00% | 4.7 µmol/kg | COc1ccc(S(=O)(=O)Nc2nc(-c3cccc([N+](=O)[O-])c3)cs2)cc1OC [Example 21, 3,4-Dimethoxy-N-[4-(3-nitro-phenyl)-thiazol-2-yl]-benzenesulfonamide] | – | –
10 | 1.4% | 15 nM | – | 4.6 µmol/kg | Nc1ccc(S(=O)(=O)Nc2nc(-c3cc(C(F)(F)F)ccc3F)cs2)cc1 [Example 42, 4-Amino-N-[4-(2-fluoro-5-trifluoromethyl-phenyl)-thiazol-2-yl]benzenesulfonamide] | 256 µg/mL (≈ 613 µM) | MIC (Listeria monocytogenes; [3]): > 256 µg/mL; MIC (Pseudomonas aeruginosa; [4]): > 256 µg/mL; MIC (Enterococcus faecalis; [5]): > 256 µg/mL; MIC (Streptococcus pneumoniae; [6]): > 256 µg/mL; MIC (Staphylococcus aureus; [7]): 16 µg/mL (≈ 38.3 µM); MIC (Streptococcus pyogenes; [8]): 16 µg/mL (≈ 38.3 µM)
11 | 4.7% | 22 nM | – | 5.3 µmol/kg | COc1ccc(S(=O)(=O)Nc2nc(-c3cc(C(F)(F)F)ccc3F)cs2)cc1OC [Example 46, 3,4-Dimethoxy-N-[4-(2-fluoro-5-trifluoromethyl-phenyl)-thiazol-2-yl]benzenesulfonamide] | > 256 µg/mL | MIC (Listeria monocytogenes; [3]): > 256 µg/mL; MIC (Pseudomonas aeruginosa; [4]): > 256 µg/mL; MIC (Enterococcus faecalis; [5]): > 256 µg/mL; MIC (Streptococcus pneumoniae; [6]): > 256 µg/mL; MIC (Staphylococcus aureus; [7]): 32 µg/mL (≈ 69.2 µM); MIC (Streptococcus pyogenes; [8]): 64 µg/mL (≈ 138 µM)
